Data set [1] addresses HA H1 A/California/07/09 (Influenza A virus (A/California/07/2009(H1N1)), UniProt C3W5X2). The data set is described as follows: biochemical. As to conditions: Competition binding (AlphaLISA), pIC50 H1 A/California/07/09.
In data set [2] the target is HA H1 A/New Caledonia/20/99 (Influenza A virus (A/New Caledonia/20/1999(H1N1)), UniProt Q6WG00). The data set is described as follows: biochemical. As to conditions: Competition binding (AlphaLISA), pIC50 H1 A/New Caledonia/20/99.
Data set [3] concerns H1N1 A/California/07/09. Description: microbe, parasite or virus in culture. The format is cell-based, influenza A virus. As to conditions: for EC50: Influenza A virus, H1N1, MDCK, 96 h, read-out: Virus neutralization assay (VNA), pEC50 H1N1 A/California/07/09 (converted).
The subject of data set [4] is H1N1 A/New Caledonia/20/99. The data set is described as follows: microbe, parasite or virus in culture. The format is cell-based, influenza A virus. As to conditions: for EC50: Influenza A virus, H1N1, MDCK, 96 h, read-out: Virus neutralization assay (VNA), pEC50 H1N1 A/New Caledonia/20/99 (converted).
Data set [5] concerns H1N1 A/PR/8/34-MA. Description: microbe, parasite or virus in culture. The format is cell-based, influenza A virus. As to conditions: for EC50: Influenza A virus, MDCK, 96 h, read-out: Virus neutralization assay (VNA), pEC50 H1N1 A/PR/8/34-MA (converted).
Data set [6] concerns H5N1 A/Vietnam/1203/04. The data set is described as follows: microbe, parasite or virus in culture. It is filed as cell-based, influenza A virus. As to conditions: 96 h, average of repeats; for Virus neutralization assay (VNA), pEC50 H5N1 A/Vietnam/1203/04: MDCK cells, CPE by ATPlite; for EC50: Influenza A virus, H5N1, MDCK, read-out: Virus neutralization assay (VNA), pEC50 H5N1 A/Vietnam/1203/04, MDCK cells, 96 h, CPE by ATPlite (converted). (Cellular ATP, detected with luciferase, serves as a proxy for viable cell number.)

In data set [7] the test system is MDCK cells. As to conditions: dog.
The target in data set [8] is HA H5 A/Vietnam/1203/04 (Influenza A virus (A/Vietnam/1203/2004(H5N1)), UniProt Q5EP31). Description: biochemical. As to conditions: Competition binding (AlphaLISA), pIC50 H5 A/Vietnam/1203/04. (In general: Bead proximity is the source of the signal in Alpha formats.)
The nature of data set [9]: in vitro. As to conditions: dog, Cytotoxicity (pCC50) MDCK.

Each structure is given as a SMILES string. Bounds are passed on as bounds.

Regarding `COC(=O)[C@@H](c1ccccc1)N1CCN(C(=O)c2cccc(-c3nc4ccc(OC)cc4s3)c2)CC1` [Example 22], the IC50 is 15.8 nM in data set [1] and 12.6 nM in data set [2]. The “Virus neutralization assay (VNA), pEC50 H1N1 A/California/07/09” value in [3] was 6.8. In [4], the “Virus neutralization assay (VNA), pEC50 H1N1 A/New Caledonia/20/99” value worked out at 6.9. The “Virus neutralization assay (VNA), pEC50 H1N1 A/PR/8/34-MA” value in data set [5] was 6.9. Moreover, the “Virus neutralization assay (VNA), pEC50 H5N1 A/Vietnam/1203/04” value in [6] came out at 5.8. Besides, the “Cytotoxicity (pCC50) MDCK” value in [7] is reported as below 4.3.
Turning to `Cc1nnc([C@@H](c2ccccc2)N2CCN(C(=O)c3cccc(-c4nc5cc(C(F)(F)F)ccc5o4)c3)CC2)o1` [Example 27], the IC50 was 31.6 nM in data set [1], 50.1 nM in data set [2] and 1260 nM in data set [8]. Besides, the EC50 is 316 nM in [3], 316 nM in [4] and 39800 nM in [6]. For the same compound, the “Cytotoxicity (pCC50) MDCK” value in data set [7] is below 4.3.
Consider `Cc1nnc([C@@H](c2ccccc2)N2CCN(C(=O)c3cccc(-c4nc5cc(C(F)(F)F)ccc5o4)c3)CC2)o1` [Example 69], for which the IC50 is 63.1 nM in data set [1], 79.4 nM in [2] and 2510 nM in data set [8]. The “Virus neutralization assay (VNA), pEC50 H1N1 A/California/07/09” value in data set [3] came to 6.4. In addition, in [4], the “Virus neutralization assay (VNA), pEC50 H1N1 A/New Caledonia/20/99” value stood at 6.2. In addition, the “Virus neutralization assay (VNA), pEC50 H5N1 A/Vietnam/1203/04” value in [6] is given as 4.5. The “Cytotoxicity (pCC50) MDCK” value in data set [7] was found to be 5.0.
Turning to `COC(=O)C(c1ccccc1)C1CCN(C(=O)c2cccc(-c3nc4ccc(OC)cc4s3)c2)CC1` (stereo not drawn) [Example 105], the results for the IC50 in data set [1], in data set [2] and in data set [8] were 126 nM, 100 nM and 2000 nM, respectively. Moreover, the EC50 in data set [3] was 3160 nM; in data set [4], 1000 nM; in data set [5] it was 2000 nM; in data set [6], 12600 nM. In addition, the CC50 in data set [9] is above 50100 nM.
On to `COc1ccc2nc(-c3cccc(C(=O)N4CCN(C(C(C)=O)c5ccccc5)CC4)c3)sc2c1` (stereo not drawn) [Example 106], for which the IC50 is 398 nM in [1], 200 nM in data set [2] and 2000 nM in [8]. The EC50 was 3160 nM in data set [3], 1000 nM in [4] and above 50100 nM in data set [6]. For the same compound, the “Cytotoxicity (pCC50) MDCK” value in data set [7] is reported as 4.4.
In the case of `CCOC(=O)[C@@H](c1ccccc1)N1CCN(C(=O)c2cccc(-c3ccc(OC)cc3)c2)CC1` [Example 114], the IC50 in data set [1] is 100 nM; in data set [2] it was 126 nM; in data set [8], 398 nM. Also, the EC50 in data set [3] is 2000 nM; in [4], 1260 nM; in data set [5] it was 2510 nM; in [6], 31600 nM. The compound also showed a CC50 in data set [9] of 3980 nM.
Take `CCOC(=O)C(c1ccccc1)N1CCN(C(=O)c2cccc(-c3ccc(OC)cc3)c2)CC1` (stereo not drawn) [Example 120]: the figures for the IC50 in data set [1], in data set [2] and in data set [8] were 251 nM, 251 nM and 2510 nM, respectively. Moreover, the EC50 was 1260 nM in data set [3], 1580 nM in data set [4], 1000 nM in data set [5] and above 50100 nM in [6]. In addition, the CC50 in data set [9] is above 50100 nM.
As to `COC(=O)C(c1ccccc1)C1CCN(C(=O)c2cccc(-c3nc4ccc(OC)cc4[nH]3)c2)CC1` (stereo not drawn) [Example 123], the figures for the IC50 in data set [1], in data set [2] and in data set [8] were 631 nM, 501 nM and 12600 nM, respectively. The EC50 was 5010 nM in data set [3], 1580 nM in [4], 2510 nM in data set [5] and 50100 nM in [6]. The same compound gave a CC50 in [9] above 50100 nM.
Regarding `COC(=O)C(c1ccccc1)N1CCN(C(=O)c2cccc(-c3ccc(OC)cc3)c2)CC1` (stereo not drawn) [Example 128], the IC50 is 251 nM in data set [1], 158 nM in [2] and 3160 nM in data set [8]. Also, the EC50 is 3160 nM in data set [3] and 10000 nM in [6]. The “Virus neutralization assay (VNA), pEC50 H1N1 A/New Caledonia/20/99” value in [4] came to 5.7. Also, the “Cytotoxicity (pCC50) MDCK” value in [7] was below 4.3.
As for `COC(=O)C(c1ccccc1)C1CCN(C(=O)c2cccc(-c3ccc(OC)cc3)c2)CC1` (stereo not drawn) [Example 130], the values for the IC50 in data set [1], in [2] and in [8] were 1000 nM, 631 nM and 10000 nM, respectively. For the same compound, the EC50 was 15800 nM in data set [3], 2000 nM in [4], 12600 nM in [5] and 39800 nM in data set [6]. Further, the CC50 in data set [9] was 39800 nM.

For orientation: IC50 means the concentration that inhibits the measured activity by half. A lower IC50 goes with greater potency. What is called CC50 is the concentration giving 50% cytotoxicity. High values mean better tolerance by the cells, low ones harm at low concentration.

(Values after patent publication US11040963B2 (priority 2017, dated 2021).)
